Assay results published in ChEMBL document CHEMBL1135083, “A designed P1 cysteine mimetic for covalent and non-covalent inhibitors of HCV NS3 protease” (Bioorg Med Chem Lett, 2002).
Numbered stars: 1 amine (or outer) side, 2 acyl side, 3 side chain; on linkers, the order of the positions; unused ones are H or OH. Square brackets hold non-standard residues; d marks the D form. Peptide text beside a SMILES is read from it. * marks the point of attachment. Dip = N[C@H](C(=O)O)C(c1ccccc1)c1ccccc1; X4 = O=C(C(=O)[*:2])[C@H](CC(F)F)N[*:1]; X3 = O=C(c1nc2ccccc2s1)[C@H](CC(F)F)N*; X6 = O=C(c1nc2ccccc2o1)[C@H](CC(F)F)N*; Abu(4,4-F2) = N[C@@H](CC(F)F)C(=O)O; X5 = O=C([C@@H](CC(F)F)N[*:1])[*:2]; X1 = O=C(c1nccs1)[C@H](CC(F)F)N*; X2 = COC(=O)C(=O)[C@H](CC(F)F)N*; X7 = O=C(O)C(=O)[C@H](CC(F)F)N*; Cha = N[C@@H](CC1CCCCC1)C(=O)O; AllylGly = C=CC[C@H](N)C(=O)O; Abu = CC[C@H](N)C(=O)O; NHBn = c1ccc(CN*)cc1

These molecules were tested against Hepatitis C virus serine protease, NS3/NS4A (Hepatitis C virus, UniProt A3EZI9+D2K2A8) (assay: Inhibition of hepatitis C virus (HCV) NS3/NS4A serine protease).
Chain of Hepatitis C virus serine protease, NS3/NS4A (D2K2A8 whole entry): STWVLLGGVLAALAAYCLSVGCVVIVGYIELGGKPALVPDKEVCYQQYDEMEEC
Chain of Hepatitis C virus serine protease, NS3/NS4A (A3EZI9 whole entry): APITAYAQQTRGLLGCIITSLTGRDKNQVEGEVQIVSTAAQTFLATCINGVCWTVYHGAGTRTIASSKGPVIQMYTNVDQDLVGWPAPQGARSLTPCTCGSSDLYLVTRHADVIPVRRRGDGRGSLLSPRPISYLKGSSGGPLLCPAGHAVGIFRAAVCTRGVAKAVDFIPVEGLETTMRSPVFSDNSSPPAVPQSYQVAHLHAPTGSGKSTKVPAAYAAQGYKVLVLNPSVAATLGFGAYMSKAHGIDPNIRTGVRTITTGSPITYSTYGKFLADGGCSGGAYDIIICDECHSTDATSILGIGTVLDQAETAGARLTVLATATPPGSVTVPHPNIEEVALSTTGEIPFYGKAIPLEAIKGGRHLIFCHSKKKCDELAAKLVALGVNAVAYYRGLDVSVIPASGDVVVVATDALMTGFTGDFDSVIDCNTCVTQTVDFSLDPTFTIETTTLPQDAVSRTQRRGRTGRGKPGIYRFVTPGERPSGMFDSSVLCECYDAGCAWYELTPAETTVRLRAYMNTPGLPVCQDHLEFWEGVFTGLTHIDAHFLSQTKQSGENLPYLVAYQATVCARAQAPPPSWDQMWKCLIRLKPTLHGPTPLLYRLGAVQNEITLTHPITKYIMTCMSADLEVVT
Type: protein-complex assay, Hepacivirus hominis

Ki | Structure (SMILES)
1500 nM | CC(=O)N[C@@H](CC(=O)O)C(=O)N[C@@H](CCC(=O)O)C(=O)N[C@H](C(=O)N[C@@H](CCC(=O)O)C(=O)N[C@@H](CC1CCCCC1)C(=O)N[C@@H](CC(F)F)C(=O)c1nccs1)C(c1ccccc1)c1ccccc1 (Ac-DE[Dip]E[Cha]-X1)
2 nM | COC(=O)C(=O)[C@H](CC(F)F)NC(=O)[C@H](CC1CCCCC1)NC(=O)[C@H](CCC(=O)O)NC(=O)[C@@H](NC(=O)[C@H](CCC(=O)O)NC(=O)[C@H](CC(=O)O)NC(C)=O)C(c1ccccc1)c1ccccc1 (Ac-DE[Dip]E[Cha]-X2)
150 nM | CC(=O)N[C@@H](CC(=O)O)C(=O)N[C@@H](CCC(=O)O)C(=O)N[C@H](C(=O)N[C@@H](CCC(=O)O)C(=O)N[C@@H](CC1CCCCC1)C(=O)N[C@@H](CC(F)F)C(=O)c1nc2ccccc2s1)C(c1ccccc1)c1ccccc1 (Ac-DE[Dip]E[Cha]-X3)
600 nM | CC(=O)N[C@@H](CC(=O)O)C(=O)N[C@@H](CCC(=O)O)C(=O)N[C@H](C(=O)N[C@@H](CCC(=O)O)C(=O)N[C@@H](CC1CCCCC1)C(=O)N[C@@H](CC(F)F)C(=O)c1nc2ccccc2o1)C(c1ccccc1)c1ccccc1 (Ac-DE[Dip]E[Cha]-X6)
0.01 nM | CC(=O)N[C@@H](CC(=O)O)C(=O)N[C@@H](CCC(=O)O)C(=O)N[C@H](C(=O)N[C@@H](CCC(=O)O)C(=O)N[C@@H](CC1CCCCC1)C(=O)N[C@@H](CC(F)F)C(=O)C(=O)O)C(c1ccccc1)c1ccccc1 (Ac-DE[Dip]E[Cha]-X7)
40 nM | CC(=O)N[C@@H](CC(=O)O)C(=O)N[C@@H](CCC(=O)O)C(=O)N[C@H](C(=O)N[C@@H](CCC(=O)O)C(=O)N[C@@H](CC1CCCCC1)C(=O)N[C@@H](CS)C(=O)O)C(c1ccccc1)c1ccccc1 (Ac-DE[Dip]E[Cha]C-OH)
30 nM | CC(=O)N[C@@H](CC(=O)O)C(=O)N[C@@H](CCC(=O)O)C(=O)N[C@H](C(=O)N[C@@H](CCC(=O)O)C(=O)N[C@@H](CC1CCCCC1)C(=O)N[C@@H](CC(F)F)C(=O)O)C(c1ccccc1)c1ccccc1 (Ac-DE[Dip]E[Cha][Abu(4,4-F2)]-OH)
0.5 nM | CC(=O)N[C@@H](CC(=O)O)C(=O)N[C@@H](CCC(=O)O)C(=O)N[C@H](C(=O)N[C@@H](CCC(=O)O)C(=O)N[C@@H](CC1CCCCC1)C(=O)N[C@H](C=O)CC(F)F)C(c1ccccc1)c1ccccc1 (Ac-DE[Dip]E[Cha][Abu(4,4-F2)]-aldehyde)
700 nM | CC[C@H](NC(=O)[C@H](CC1CCCCC1)NC(=O)[C@H](CCC(=O)O)NC(=O)[C@@H](NC(=O)[C@H](CCC(=O)O)NC(=O)[C@H](CC(=O)O)NC(C)=O)C(c1ccccc1)c1ccccc1)C(=O)O (Ac-DE[Dip]E[Cha][Abu]-OH)
100 nM | C=CC[C@H](NC(=O)[C@H](CC1CCCCC1)NC(=O)[C@H](CCC(=O)O)NC(=O)[C@@H](NC(=O)[C@H](CCC(=O)O)NC(=O)[C@H](CC(=O)O)NC(C)=O)C(c1ccccc1)c1ccccc1)C(=O)O (Ac-DE[Dip]E[Cha][AllylGly]-OH)
7 nM | C=CC[C@@H](C=O)NC(=O)[C@H](CC1CCCCC1)NC(=O)[C@H](CCC(=O)O)NC(=O)[C@@H](NC(=O)[C@H](CCC(=O)O)NC(=O)[C@H](CC(=O)O)NC(C)=O)C(c1ccccc1)c1ccccc1 (Ac-DE[Dip]E[Cha][AllylGly]-aldehyde)
1.5 nM | CC(=O)N[C@@H](CC(=O)O)C(=O)N[C@@H](CCC(=O)O)C(=O)N[C@H](C(=O)N[C@@H](CCC(=O)O)C(=O)N[C@@H](CC1CCCCC1)C(=O)N[C@@H](CC(F)F)C(=O)C(=O)NCc1ccccc1)C(c1ccccc1)c1ccccc1 (Ac-DE[Dip]E[Cha][X4]-NHBn)
640 nM | CC(=O)N[C@@H](CC(=O)O)C(=O)N[C@@H](CCC(=O)O)C(=O)N[C@H](C(=O)N[C@@H](CCC(=O)O)C(=O)N[C@@H](CC1CCCCC1)C(=O)N[C@H](CC(F)F)C(=O)O)C(c1ccccc1)c1ccccc1 (Ac-DE[Dip]E[Cha][X5]-OH)
